The values below come from patent publication US7094420B2, “Methods of using isomer enriched conjugated linoleic acid compositions” (Natural ASA, priority 1998, dated 2006).

The test in a line: Mouse feeding trial of diets with different ratios and amounts of CLA isomers. The format is in vivo, ICR mice. On the procedure:
Based on the results of Example 1, the Inventors believe that the t10,c12 isomer is an active isomer.
The trial was conducted with 84 ICR mice purchased from Harlan Sprague Dawley (Madison, Wis.). The diets were blended using the basal diet, sugar, corn oil and one or a blend of isomers of conjugated linoleic acid (expressed as percent of diet). Each treatment consisted of 2 pens of 3 mice. Mice had food and water ad libitum. Food consumption was monitored daily and mice were weighed every other day when bedding was changed. At three weeks of feeding the diet, mice were euthanized by CO2 and final body weights were taken. Mice were then necropsied and fat pads were weighed. Mice were also analyzed for total body fat. Mice were freeze dried and ground. Duplicate samples were analyzed by proximate analysis (ether extraction, ash, kjeldahl, and moisture).

Molecules are shown by their SMILES.

For `CCCCC/C=C\C=C\CCCCCCCCC(=O)O` [t10,c12 CLA, t10,c12 octadecadienoic acid], for the setting “mice fed only t10,c12 CLA vs control mice not receiving CLA”, the “body fat compared to control mice” value is reported as “reduced body fat”. In addition, the reduction in growth (mice fed t10,c12 isomer only) worked out at 10%.
As for `CCCCCC/C=C/C=C\CCCCCCCC(=O)O` [c9,t11 CLA, c9,t11 octadecadienoic acid], the improvement in growth (mice fed only c9,t11 CLA, no t10,c12 present, linear) was 16%. For the same compound, the “growth, rate of gain, and feed conversion” value (mice receiving only c9,t11 CLA) was “increased growth, rate of gain, and feed conversion”.
